Laboratory results: US20260200928A1, “THERAPEUTIC COMPOUNDS” (Sanofi, priority 2022, published 2026)

The compounds below were run against T1, human IL-17A (Homo sapiens, UniProt Q16552) (assay: IL-17A AlphaLISA competition assay (block of IL-17A binding to its receptor IL-17RA)). Conditions: mean IC50 (n≥2), block of IL-17A binding to IL-17RA.
T1 construct: purchased R&D Systems 7955-IL/CF
T1 sequence (Q16552 24-155): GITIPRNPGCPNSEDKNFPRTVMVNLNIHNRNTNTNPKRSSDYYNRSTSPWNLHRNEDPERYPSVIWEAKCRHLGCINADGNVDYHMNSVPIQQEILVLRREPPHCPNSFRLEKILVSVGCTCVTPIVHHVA
Method in brief: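 Bead-based AlphaLISA competition in PBS with 0.05% Tween-20 and 0.1% BSA: compound first meets human IL-17A (7.5 nM stock) for 30 min, then IL-17RA/Fc (5 nM stock) for 90 min, all at room temperature, before acceptor/donor bead capture. IC50 fitted 4-parameter, DMSO and 4 μM reference inhibitor as controls; at least duplicate.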

| Compound | IC50 |
| --- | --- |
| COC[C@H](c1ccnc(NC(=O)[C@@H](NC(=O)c2conc2C)C2CCC(Cl)CC2)c1)N1C[C@@H](C(F)(F)F)NC1=O (stereo partly drawn) [Example 313, N-((1S)-1-(4-chlorocyclohexyl)-2-((4-((S)-2-methoxy-1-((S)-2-oxo-4-(trifluoromethyl)imidazolidin-1-yl)ethyl)pyridin-2-yl)amino)-2-oxoethyl)-3-methylisoxazole-4-carboxamide] | 0.109 µM |
| CCn1nccc1C(=O)N[C@H](C(=O)Nc1cc(O[C@H]2C[C@@H](C(F)(F)F)NC2=O)ccn1)[C@H]1CC[C@H](C)CC1 [Example 322, 1-ethyl-N—((S)-1-((1r,4S)-4-methylcyclohexyl)-2-oxo-2-((4-(((3S,5S)-2-oxo-5-(trifluoromethyl)pyrrolidin-3-yl)oxy)pyridin-2-yl)amino)ethyl)-1H-pyrazole-5-carboxamide] | 0.821 µM |
| CC(C)(C)OC(=O)N[C@H](C(=O)Nc1cc(C(NC(=O)CCC(F)(F)F)C2CC2)ccn1)C1CCC(F)(F)CC1 (single isomer, unassigned) [Example 74] | 2.62 µM |
| CC(C)n1nccc1C(=O)NC(C(=O)Nc1cc(Cc2cccc(=O)n2C)ccn1)C1CCC(F)(F)CC1 (stereo not shown) [Example 35, N-(1-(4,4-difluorocyclohexyl)-2-((4-((1-methyl-6-oxo-1,6-dihydropyridin-2-yl)methyl)pyridin-2-yl)amino)-2-oxoethyl)-1-isopropyl-1H-pyrazole-5-carboxamide] | 23.5 µM |
| CCn1nccc1C(=O)N[C@H](C(=O)Nc1cc(C(C)(C)N2C[C@@H](C(F)(F)F)NC2=O)ccn1)C1CCC(F)(F)CC1 [Example 174, N-((S)-1-(4,4-difluorocyclohexyl)-2-oxo-2-((4-(2-((S)-2-oxo-4-(trifluoromethyl)imidazolidin-1-yl)propan-2-yl)pyridin-2-yl)amino)ethyl)-1-ethyl-1H-pyrazole-5-carboxamide] | 0.362 µM |
| COCC(c1ccnc(NC(=O)[C@@H](NC(=O)c2nonc2C)[C@H]2CC[C@H](C)CC2)c1)N1C[C@@H](C(F)(F)F)NC1=O (single isomer, unassigned) [Example 75] | 0.134 µM |
| COCC(c1ccnc(NC(=O)[C@@H](NC(=O)c2nonc2C2CC2)C2CCC(F)(F)CC2)c1)[C@H]1C[C@@H](C(F)(F)F)NC1=O (single isomer, unassigned) [Example 186, 4-Cyclopropyl-N-((1S)-1-(4,4-difluorocyclohexyl)-2-((4-((R or S)-2-methoxy-1-((3R,5S)-2-oxo-5-(trifluoromethyl)pyrrolidin-3-yl)ethyl)pyridin-2-yl)amino)-2-oxoethyl)-1,2,5-oxadiazole-3-carboxamide] | 0.069 µM |
| CC(C)n1nccc1C(=O)N[C@H](C(=O)Nc1cc(C(NC(=O)CC(F)(F)F)C2CC2)ccn1)C1CCC(F)(F)CC1 (stereo partly drawn) [Example 160, N-((1S)-2-((4-(cyclopropyl(3,3,3-trifluoropropanamido)methyl)pyridin-2-yl)amino)-1-(4,4-difluorocyclohexyl)-2-oxoethyl)-1-isopropyl-1H-pyrazole-5-carboxamide] | 0.183 µM |
| CC(C)n1nccc1C(=O)N[C@H](C(=O)Nc1cc(CN2C[C@@H](C(F)(F)F)NC2=O)ccn1)C(C1CC1)C1CC1 [Example 17, N-((S)-1,1-dicyclopropyl-3-oxo-3-((4-(((S)-2-oxo-4-(trifluoromethyl)imidazolidin-1-yl)methyl)pyridin-2-yl)amino)propan-2-yl)-1-isopropyl-1H-pyrazole-5-carboxamide] | 0.092 µM |
| CCc1conc1C(=O)N[C@H](C(=O)Nc1cc([C@@H](COC)N2C[C@@H](C(F)(F)F)NC2=O)ccn1)C1CCCC(F)(F)C1 (single isomer, unassigned) [Example 304] | 0.026 µM |
| CC(C)n1nccc1C(=O)N[C@H](C(=O)Nc1cc(OC2CCNC2=O)ccn1)[C@H]1CC[C@H](C)CC1 (stereo partly drawn) [Example 119, 1-isopropyl-N-((1S)-1-((1r,4S)-4-methylcyclohexyl)-2-oxo-2-((4-((2-oxopyrrolidin-3-yl)oxy)pyridin-2-yl)amino)ethyl)-1H-pyrazole-5-carboxamide] | 3.99 µM |
| C[C@H]1CC[C@H]([C@H](NC(=O)c2ccnn2CCC(O)C(F)(F)F)C(=O)Nc2cc(CN3C[C@@H](C(F)(F)F)NC3=O)ccn2)CC1 (single isomer, unassigned) [Example 69] | 0.126 µM |
| CC(C)(C)OC(=O)N[C@H](C(=O)Nc1cc(CN2C[C@@H](C(F)(F)F)NC2=O)ccn1)C(C1CC1)C1CC1 [Example 104, Tert-butyl ((S)-1,1-dicyclopropyl-3-oxo-3-((4-(((S)-2-oxo-4-(trifluoro-methyl)imidazolidin-1-yl)methyl)pyridin-2-yl)amino)propan-2-yl)carbamate] | 0.938 µM |
| COC[C@H](c1ccnc(NC(=O)[C@@H](NC(=O)c2ccnn2C(C)C)C2CCC(F)(F)CC2)c1)N1CC(F)(F)CNC1=O [Example 181, N-((S)-2-((4-((S)-1-(5,5-difluoro-2-oxotetrahydropyrimidin-1(2H)-yl)-2-methoxyethyl)pyridin-2-yl)amino)-1-(4,4-difluorocyclohexyl)-2-oxoethyl)-1-isopropyl-1H-pyrazole-5-carboxamide] | 0.102 µM |
| CC(C)n1nccc1C(=O)N[C@H](C(=O)Nc1cc(C[C@H]2C[C@@H](C(F)(F)F)NC2=O)ccn1)[C@H]1CC[C@H](C)CC1 [Example 156, 1-isopropyl-N—((S)-1-((1r,4S)-4-methylcyclohexyl)-2-oxo-2-((4-(((3S,5S)-2-oxo-5-(trifluoromethyl)pyrrolidin-3-yl)methyl)pyridin-2-yl)amino)ethyl)-1H-pyrazole-5-carboxamide] | 0.053 µM |
| COC[C@H](c1ccnc(NC(=O)C(NC(=O)c2nocc2OCC(F)F)C2CCC(F)CC2)c1)N1C[C@@H](C(F)(F)F)NC1=O (single isomer, unassigned) [Example 281] | 0.117 µM |
| O=C(N[C@H](C(=O)Nc1cc(C[C@H]2C[C@@H](C(F)(F)F)NC2=O)ccn1)C1CCC(F)(F)CC1)c1nonc1C1CC1 [Example 222, 4-cyclopropyl-N-((S)-1-(4,4-difluorocyclohexyl)-2-oxo-2-((4-(((3S,5S)-2-oxo-5-(trifluoromethyl)pyrrolidin-3-yl)methyl)pyridin-2-yl)amino)ethyl)-1,2,5-oxadiazole-3-carboxamide] | 0.07 µM |
| COC[C@H](c1ccnc(NC(=O)[C@@H](NC(=O)c2ccnn2C)C(C2CC2)C2CC2)c1)N1C[C@@H](C(F)(F)F)NC1=O [Example 228, N-((S)-1,1-dicyclopropyl-3-((4-((S)-2-methoxy-1-((S)-2-oxo-4-(trifluoromethyl)imidazolidin-1-yl)ethyl)pyridin-2-yl)amino)-3-oxopropan-2-yl)-1-methyl-1H-pyrazole-5-carboxamide] | 0.062 µM |
| CC(C)n1nccc1C(=O)N[C@H](C(=O)Nc1cc(CN2C[C@@H](C(F)(F)F)NC2=O)ccn1)[C@@H](C)OC(C)(C)C [Example 127, N-((2S,3R)-3-(tert-butoxy)-1-oxo-1-((4-(((S)-2-oxo-4-(trifluoromethyl)-imidazolidin-1-yl)methyl)-pyridin-2-yl)amino)butan-2-yl)-1-isopropyl-1H-pyrazole-5-carboxamide] | 0.44 µM |
| O=C(N[C@H](C(=O)Nc1cc(C(C2CC2)N2C[C@@H](C(F)(F)F)NC2=O)ccn1)C1CCC(F)(F)CC1)c1nonc1C1CC1 (single isomer, unassigned) [Example 162, 4-Cyclopropyl-N—((S)-2-((4-((R or S)-cyclopropyl((S)-2-oxo-4-(trifluoromethyl)imidazolidin-1-yl)methyl)pyridin-2-yl)amino)-1-(4,4-difluorocyclohexyl)-2-oxoethyl)-1,2,5-oxadiazole-3-carboxamide] | 0.444 µM |
| Cc1nonc1C(=O)N[C@H](C(=O)Nc1cc(C[C@H]2C[C@@H](C(F)(F)F)NC2=O)ccn1)C1CCC(F)(F)CC1 [Example 221, N-((S)-1-(4,4-difluorocyclohexyl)-2-oxo-2-((4-(((3S,5S)-2-oxo-5-(trifluoromethyl)pyrrolidin-3-yl)methyl)pyridin-2-yl)amino)ethyl)-4-methyl-1,2,5-oxadiazole-3-carboxamide] | 0.157 µM |
| Cn1nccc1C(=O)N[C@H](C(=O)Nc1cc(C(NC(=O)CCC(F)(F)F)C2CC2)ccn1)[C@H]1CC[C@H](C)CC1 (stereo partly drawn) [Example 236, N-((1S)-2-((4-(cyclopropyl(4,4,4-trifluorobutanamido)methyl)pyridin-2-yl)amino)-1-((1r,4S)-4-methylcyclohexyl)-2-oxoethyl)-1-methyl-1H-pyrazole-5-carboxamide] | 0.026 µM |
| COCC(c1ccnc(NC(=O)C(NC(=O)C(F)(F)c2cc(F)cc(F)c2)C2CCC(C)CC2)c1)N1CC(C(F)(F)F)NC1=O (single isomer, unassigned) [Example 250] | 0.038 µM |
| CCc1oncc1C(=O)N[C@H](C(=O)Nc1cc([C@@H](COC)N2C[C@@H](C(F)(F)F)NC2=O)ccn1)[C@@H]1C[C@H]2C[C@H]2C1 [Example 318, N—((S)-1-((1R,3s,5S)-bicyclo[3.1.0]hexan-3-yl)-2-((4-((S)-2-methoxy-1-((S)-2-oxo-4-(trifluoromethyl)imidazolidin-1-yl)ethyl)pyridin-2-yl)amino)-2-oxoethyl)-5-ethylisoxazole-4-carboxamide] | 0.064 µM |
| CC(C)(C)OC(=O)N[C@H](C(=O)Nc1cc(COC(=O)NCC(F)(F)F)ccn1)[C@H]1CC[C@H](C)CC1 [Example 26, Tert-butyl ((S)-1-((1r,4S)-4-methylcyclohexyl)-2-oxo-2-((4-((((2,2,2-trifluoroethyl)carbamoyl)oxy)methyl)pyridin-2-yl)amino)ethyl)carbamate] | 10.4 µM |
